Data reported in patent US20120289577A1, “COMPOSITION FOR TREATING OR PREVENTING HEARING LOSS COMPRISING NAPHTHOQUINONE-BASED COMPOUNDS” (KT&G LIFE SCIENCES CORPORATION, priority 2009, published 2012).

What was measured:
[1] = test system: outer and inner hair cells of Corti's organ explants; test: Explants of the Corti's organ, shape and arrangement of hair cells; assay type: cell-based
[2] = test system: TNF-α, IL-6, HSP60, TLR2 and TLR4 expression in HEI-OC1 cells; test: Expression of inflammation mediators by the PCR method; assay type: cell-based
HSP60 [3] = test: Release amounts of HSP60 in mice by ELISA; assay type: in vivo
Experimental: (§1) It is generally known that HSP60 in mitochondria is released outside of the cells to bind to TLR2 or TLR4, thereby inducing strong inflammation. Accordingly, the release amounts of HSP60 in mice and HEI-OC1 cells were measured by the ELISA method.

HSP60 [4] = test: Release amounts of HSP60 in HEI-OC1 cells by ELISA; assay type: cell-based
Experimental: as §1

HSP60 [5] = test: Location variation of HSP60 by cell staining; assay type: cell-based
From the text: Also, location variation of HSP60 was identified by cell staining.

HMGB1 [6] = test: Extracellular release of HMGB1 by ELISA; assay type: cell-based
From the text: HMGB1 is, together with HSP60, known as an important mediator for the activation of TLRs and the resulting inflammation. Accordingly, the extracellular release of HMGB1 was identified by the ELISA method.

[7] = test system: C57BL/6 mice (age-related hearing loss model); test: Auditory brainstem response (ABR) threshold in animal model with age-related presbycusis; assay type: in vivo; conditions: for ABR threshold: feed containing 0.06% β-lapachone; for recovery of ABR thresholds in comparison with the control group: p<0.05
Experimental: C57BL/6 mice which are well known as a age-related hearing loss model were used for this experiment. 12-month-old C57BL/6 mice were directly purchased from Central Lab. Animal Inc. (Seoul, Korea), and bred up to 24 months of age with measuring hearing loss every 3 months. All mice used in this experiment were bred in an axenic (germfree) animal facility maintaining constant temperature (22 to 26° C.) and humidity (55 to 60%).
All experiments were conducted for groups divided into a control group freely providing normal feed, caloric restriction (CR) group limiting dietary to 70%, and βL group providing feed containing 0.06% β-lapachone (compound 1).
In order to evaluate auditory brainstem response, all lab animals were intramuscularly injected with a mixture of xylazine (5 mg/kg) and ketamine for anesthesia and the variation of auditory brainstem response threshold was measured using a TDT system (Tucker-Davis Technologies, FL, USA) in a soundproof room.
An insertable ear tip (3.5 mm, Nicolet Biomedical, Inc.) was placed in the external auditory meatus, electrodes were placed at scalp vertex (active electrode), the mastoid region of the ear of interest (reference electrode) and the mastoid region of the opposite ear (ground electrode), and the threshold of ABS was measured by starting with 90 dB HL intensity and then sequentially decreasing the intensity by 10 dB at 4, 8, 16 and 32 kHz.
There was no arousal response and death due to respiratory depression during the ABR test. The comparison of the ABR thresholds between groups was conducted by one-way analysis of variance (ANOVA) and P value of 0.05 or less was regarded as being significant.

[8] = test system: outer and inner hair cells of the inner ear; test: TUNEL identification of hair cell damage in inner ear; assay type: in vivo; conditions: 24-month-old mice, βL group vs control group
From the text: In order to identify damage of hair cells, the inner ears of the lab animals were enucleated and subject to terminal deoxynucleotidyl transferase-mediated dUTP nick end-labeling (TUNEL) from the top of cochlea to middle circular part thereof, followed by analyzing TUNEL positive cells using a fluorescence microscope.

mitochondria = test: Shape variations of mitochondria by transmission electron microscope (TEM); assay type: in vivo; conditions: 24-month-old mice, compared to 2-month-old lab animals
From the text: Also, in order to identify inhibition of age-related mitochondria damage by β-lapachone, the shape variations of mitochondria were detected for three groups of 24-month-old lab animals using a transmission electron microscope (TEM).

HMGB1 [9] = test: HMGB1 expression in inner ear by tissue staining; assay type: in vivo; conditions: 21-month-old mice, compared to control and CR groups
Experimental: In order to identify an effect of β-lapachone against the expression of HMGB1 which is known to be important for the damage and shape variation of mitochondria, a tissue staining was conducted.

6-week-old C57BL/6 mice = assay type: in vivo; conditions: β-lapachone (10, 20 and 40 mg/kg/day) and cisplatin for 4 days, p<0.05
Experimental: 6-week-old C57BL/6 mice were bred in an axenic (germfree) animal facility maintaining constant temperature (22 to 26° C.) and humidity (55 to 60%).
The comparison of the ABR thresholds between groups was conducted by one-way analysis of variance (ANOVA) and P value of 0.05 or less was regarded as being significant.

[10] = test system: HEI-OC1 auditory hair cell line; assay type: cell-based; conditions: β-lapachone 30 minutes before treating with cisplatin, p<0.05
[11] = HEI-OC1 cells treated with cisplatin

N.N.[Cl][Pt][Cl] [cisplatin, reference compound]
shape and arrangement of the outer and inner hair cells ([1]; treated with cisplatin): shape and arrangement of the outer and inner hair cells were changed | expression of inflammation mediators (TNF-α, IL-6, HSP60, TLR2, TLR4) [2, 11]: increased expression of inflammation-inducing cytokines such as TNF-α, IL-6 and HSP60 and inflammation mediators such as TLR2 and TLR4 | release amounts of HSP60 (HSP60 [3]; mice treated with cisplatin, p<0.05): significantly increased release amounts of HSP60 | release amounts of HSP60 (HSP60 [4]; HEI-OC1 cells treated with cisplatin, p<0.05): significantly increased release amounts of HSP60 | location of HSP60 (HSP60 [5]; cells treated with cisplatin): HSP60 was almost expressed in cytoplasm | extracellular release of HMGB1 (HMGB1 [6]; [11]): extracellular release of excessive amounts of HMGB1

CC1(C)CCC2=C(O1)c1ccccc1C(=O)C2=O [β-lapachone]
ABR threshold ([7]; 15-month-old mice, 4 kHz): 63.33±11.55 dB SPL | ABR threshold ([7]; 15-month-old mice, 8 kHz): 33.33±15.28 dB SPL | ABR threshold ([7]; 15-month-old mice, 16 kHz): 46.67±5.77 dB SPL | ABR threshold ([7]; 15-month-old mice, 32 kHz): 53.33±5.77 dB SPL | ABR threshold ([7]; 18-month-old mice, 4 kHz): 80±0 dB SPL | ABR threshold ([7]; 18-month-old mice, 8 kHz): 46.67±11.55 dB SPL | ABR threshold ([7]; 18-month-old mice, 16 kHz): 56.67±11.55 dB SPL | ABR threshold ([7]; 18-month-old mice, 32 kHz): 66.67±11.55 dB SPL | recovery of ABR thresholds in comparison with the control group ([7]; 21-month-old mice, 4, 8, 16 and 32 kHz): statistically significant recovery at regions except for 16 kHz | ABR threshold ([7]; 21-month-old mice, 4 kHz): 56.67±5.77 dB SPL | ABR threshold ([7]; 21-month-old mice, 8 kHz): 46.67±5.77 dB SPL | ABR threshold ([7]; 21-month-old mice, 16 kHz): 53.33±15.28 dB SPL | ABR threshold ([7]; 21-month-old mice, 32 kHz): 46.67±5.77 dB SPL | recovery of ABR thresholds in comparison with the control group ([7]; 24-month-old mice, 4, 8, 16 and 32 kHz): statistically significant recovery at all regions | recovery of ABR threshold in comparison with the control group ([7]; 24-month-old mice, at 8 to 32 kHz except for 4 kHz): no less than 30 dB SPL | ABR threshold ([7]; 24-month-old mice, 4 kHz): 73.33±5.77 dB SPL | ABR threshold ([7]; 24-month-old mice, 8 kHz): 43.33±5.77 dB SPL | ABR threshold ([7]; 24-month-old mice, 16 kHz): 53.33±5.77 dB SPL | ABR threshold ([7]; 24-month-old mice, 32 kHz): 53.33±11.55 dB SPL | age-related apoptosis (TUNEL positive cells) in inner ear [8]: significantly inhibited the age-related apoptosis in the whole inner ear | number and shape of mitochondria (TEM) (mitochondria): number and shape of mitochondria similar to the 2-month-old lab animals | expression of HMGB1 in the inner ear (HMGB1 [9]): significantly decreased expression of HMGB1 | recovery of ABR thresholds as compared to the CDDP group (6-week-old C57BL/6 mice): statistically significant recovery at all regions | protection from apoptosis by cisplatin (cell viability, MTT) [10]: protected the apoptosis by cisplatin in a concentration-dependent manner | shape and arrangement of the auditory hair cells ([1]; treated with both β-lapachone and cisplatin): maintained the shape and arrangement of the auditory hair cells similar to the control group | expression of inflammation mediators by cisplatin (TNF-α, IL-6, HSP60, TLR2, TLR4) ([2]; HEI-OC1 cells, β-lapachone 30 minutes before cisplatin): inhibited by β-lapachone in a concentration-dependent manner | release amounts of HSP60 (HSP60 [3]; mice treated with both β-lapachone and cisplatin): decreased release amounts of HSP60 in a β-lapachone concentration-dependent manner | release amounts of HSP60 (HSP60 [4]; HEI-OC1 cells treated with both β-lapachone and cisplatin): decreased release amounts of HSP60 in a β-lapachone concentration-dependent manner | location of HSP60 (HSP60 [5]; cells treated with both β-lapachone and cisplatin): HSP60 was expressed in only mitochondria like the normal cells | extracellular release amounts of HMGB1 (HMGB1 [6]; HEI-OC1 cells treated with cisplatin and β-lapachone, p<0.05): the release amounts decreased in a β-lapachone concentration-dependent manner
